According to patent US20240164373A1, “ANTIMICROBIAL PERFUMING CONSUMER PRODUCTS” (Firmenich SA, priority 2021, published 2024):
Converted amounts (≈) assume the structure as drawn.

Legend:
Format in all cases: cell-based
[1] = system: Staphylococcus aureus ATCC 6538; test: MIC test in 96 well plates (broth dilution, turbidity); conditions: ATCC6538, average of three replicates, MH broth, sample in ethanol, 37° C. overnight, read-out: Minimal inhibitory concentration (ppm) Staphylococcus aureus ATCC 6538
[2] = system: Cutibacterium acnes DSM 1897; test: MIC test in 96 well plates (broth dilution, turbidity), anaerobic strain; conditions: DSM1897, average of three replicates, WC broth, sample in DMSO, read-out: Minimal inhibitory concentration (ppm) Cutibacterium acnes DSM 1897
[3] = system: Corynebacterium tuberculostearicum C1; test: MIC test in 96 well plates (broth dilution, turbidity); conditions: average of three replicates, BHI-TW80 broth, sample in DMSO, read-out: Minimal inhibitory concentration (ppm) Corynebacterium tuberculostearicum C1
Protocol: Bacterial suspension of the Corynebacterium tuberculostearicum C1 strain was prepared as follows: Stock culture (stored at −80° C.) was subcultured onto tryptic soy agar plates with 0.5% Tween 80 (TSA-TW80), and subsequently incubated at 37 °C for 48 h. The primary cultures were subcultured again onto TSA-TW80 to prepare the secondary cultures. One single colony of the secondary culture was then selected and used to inoculate 50 ml brain heart infusion broth with 0.5% Tween 80 (BHI-TW80). The inoculated broth was incubated at 37° C. and 180 rpm overnight. Aliquots (2 mL) of the overnight culture were inoculated into 50 ml of fresh BHI-TW80 broth media, and incubated at 37° C., 160 rpm. When the OD600 nm reached the target value of 4.0, cells were harvested by centrifugation at 5000 rpm for 10 min, and then resuspended in the fresh BHI-TW80 broth media at the same volume before the centrifugation. Aliquots (1 ml) of each cell suspension were diluted in 200 ml of fresh BHI-TW80 broth media as the bacterial solutions for the MIC test.
Sample solutions of test materials and reference material were prepared in ethanol for MIC test for E. coli and S. aureus strains or in DMSO for C. tuberculostearicum and C. acnes strains. In brief, stock solutions of 1% and 20% were prepared in each solvent, and then seven serial dilutions of each stock solution were prepared in each solvent to obtain a total of 16 solutions of the test material or the reference material. Aliquot (10 μl) of each solution was used for MIC test. The tested final concentrations of each material were 29, 44, 66, 99, 148, 222, 333, 500, 590, 900, 1300, 2000, 3000, 4500, 6700, 10000 ppm.
MIC test were performed in 96 well plates. […] Column 1 contained bacterial solution only (the positive growth control), and column 12 contained growth media only (the negative growth control). […]
Minimal inhibitory concentration (MIC) was determined as the lowest concentration where no growth was observed. Average MIC value of the three replicates was calculated against each strain.

[4] = system: Escherichia coli ATCC 25922; test: as above; conditions: ATCC25922, average of three replicates, MH broth, sample in ethanol, 37° C. overnight, read-out: Minimal inhibitory concentration (ppm) Escherichia coli ATCC 25922
[5] = system: Escherichia coli DSM 787; test: as above; conditions: DSM787, average of three replicates, MH broth, sample in ethanol, 37° C. overnight, read-out: Minimal inhibitory concentration (ppm) Escherichia coli DSM 787

Row | Compound | MIC [1] [µg/mL] | MIC [2] [µg/mL] | MIC [3] [µg/mL] | MIC [4] [µg/mL] | MIC [5] [µg/mL]
1 | CCC=C(C)C(O)C(C)CC (stereo not drawn) [3,5-dimethyl-5-octen-4-ol] | 1530 (≈ 9810 µM) | 1770 (≈ 11300 µM) | 2670 (≈ 17100 µM) | 3500 (≈ 22400 µM) | –
2 | CC(CCO)CCc1ccccc1 (stereo not drawn) [3-methyl-5-phenyl-1-pentanol] | 185 (≈ 1040 µM) | 259 (≈ 1450 µM) | 200 (≈ 1120 µM) | – | 360 (≈ 2020 µM)
3 | CC(O)CC(C)CCc1ccccc1 (stereo not drawn) [4-methyl-6-phenyl-2-hexanol] | 173 (≈ 900 µM) | 148 (≈ 770 µM) | 1300 (≈ 6760 µM) | > 10000 | –
